In patent US20240254119A1 (THIRD HARMONIC BIO, INC., priority 2022, published 2024):

Key:
CYP3A4 = assay: Hepatocyte CYP induction assay, CYP3A4 gene expression; assay type: in vitro ADME; details: human hepatocytes
Experimental: Exemplary compounds were tested for ability to induce CYP3A4 and/or CYP1A2 in hepatocytes. Procedures and results are described below.
Cryopreserved human hepatocytes were purchased from BioIVT (Baltimore, MD, USA), and they were stored in liquid nitrogen before using. The detailed information of hepatocytes is as follows:
Fresh dosing solutions of test compounds, and Rifampicin were prepared in the incubation medium on the day of dosing.
Cryopreserved hepatocytes were thawed and counted to determine yield, viability was measured. Hepatocytes at the concentrations of 0.7 million/mL were transferred to collagen-coated 96-well plates for attachment (0.1 mL viable cells/well). After allowing 4 to 5 hours for attachment of cells, the plating medium was replaced with Incubation Medium containing 2% (v/v) Matrigel™ (sandwich medium) and the hepatocytes were incubated until use.
All incubations were conducted at 37° C., 5% CO2, and saturated humidity.
The sandwich medium was removed and the hepatocytes were treated with incubation solutions containing test articles in vehicle (0.1% DMSO), or positive control for 24 hours after the cultures were established. The incubation solution was aspirated and replaced with incubation solution containing the same concentrations of test articles, vehicle, or positive controls for an additional 24 hours. The total treatment period was 48 hours. Triplicate were used for each concentration of test compound and positive control.
After treatment period of 48 hours, the incubation solution was aspirated. Hepatocytes were washed once with pre-warmed HBSS and incubated with 140 μL of RLT (lysis buffer from Rneasy 96 Kit) supplemented with 1% β-mercaptoethanol. Plates were then stored at ≤−60° C. freezer until RNA analysis.
Before RNA extraction, the frozen plate was thawed and cell lysates were transferred to 96-well plates. RNA isolation was performed using QIAcube HT System. RNA concentration was measured with NanoDrop ND-2000 spectrophotometer. The purity of RNA preparation was calculated by the ratio of the OD260 nm/OD280 nm and the acceptable range is between 1.8 and 2.2. Reverse transcription was performed to obtain cDNA. Quantification of the selective genes by real time quantitative Polymerase Chain Reaction (qPCR) was performed with TaqMan universal PCR Master Mix on the BIO-RAD CFX 384 Touch Real Time PCR System. The following setting were used: 50° C. for 2 minutes, 95° C. for 10 minutes, 40 cycles of 95° C. for 15 seconds and 60° C. for 1 minute. 18S rRNA was used as the internal standard.
To account for variation in RNA yields and reverse transcription polymerase chain reaction (RT-PCR), the gene of interest in all samples was normalized to an internal control gene (18S ribosomal RNA) (Cttarget gene−Ct18S=ΔCt).
The relative quantitation or change in mRNA level of selected genes induced by each test compound was expressed in relation to the vehicle control sample (Δctcompound−ΔCtvehicle=ΔΔCt). Fold changes in gene expression were determined by taking 2 to the power of this value (2^−ΔΔt).
% of positive control [(fold change in treated sample)−1]/[(fold change in positive control)−1]×100

PDGFRα = target: T1, PDGFRα (Homo sapiens, UniProt P16234); assay: HTRF biochemical assay, PDGFRα; details: Table 4, read-out: PDFGRα Biochemical IC50 avg
T1 construct: purchased Millipore 14-467 (lot 26321_ACTI)
T1 sequence (P16234 24-1089): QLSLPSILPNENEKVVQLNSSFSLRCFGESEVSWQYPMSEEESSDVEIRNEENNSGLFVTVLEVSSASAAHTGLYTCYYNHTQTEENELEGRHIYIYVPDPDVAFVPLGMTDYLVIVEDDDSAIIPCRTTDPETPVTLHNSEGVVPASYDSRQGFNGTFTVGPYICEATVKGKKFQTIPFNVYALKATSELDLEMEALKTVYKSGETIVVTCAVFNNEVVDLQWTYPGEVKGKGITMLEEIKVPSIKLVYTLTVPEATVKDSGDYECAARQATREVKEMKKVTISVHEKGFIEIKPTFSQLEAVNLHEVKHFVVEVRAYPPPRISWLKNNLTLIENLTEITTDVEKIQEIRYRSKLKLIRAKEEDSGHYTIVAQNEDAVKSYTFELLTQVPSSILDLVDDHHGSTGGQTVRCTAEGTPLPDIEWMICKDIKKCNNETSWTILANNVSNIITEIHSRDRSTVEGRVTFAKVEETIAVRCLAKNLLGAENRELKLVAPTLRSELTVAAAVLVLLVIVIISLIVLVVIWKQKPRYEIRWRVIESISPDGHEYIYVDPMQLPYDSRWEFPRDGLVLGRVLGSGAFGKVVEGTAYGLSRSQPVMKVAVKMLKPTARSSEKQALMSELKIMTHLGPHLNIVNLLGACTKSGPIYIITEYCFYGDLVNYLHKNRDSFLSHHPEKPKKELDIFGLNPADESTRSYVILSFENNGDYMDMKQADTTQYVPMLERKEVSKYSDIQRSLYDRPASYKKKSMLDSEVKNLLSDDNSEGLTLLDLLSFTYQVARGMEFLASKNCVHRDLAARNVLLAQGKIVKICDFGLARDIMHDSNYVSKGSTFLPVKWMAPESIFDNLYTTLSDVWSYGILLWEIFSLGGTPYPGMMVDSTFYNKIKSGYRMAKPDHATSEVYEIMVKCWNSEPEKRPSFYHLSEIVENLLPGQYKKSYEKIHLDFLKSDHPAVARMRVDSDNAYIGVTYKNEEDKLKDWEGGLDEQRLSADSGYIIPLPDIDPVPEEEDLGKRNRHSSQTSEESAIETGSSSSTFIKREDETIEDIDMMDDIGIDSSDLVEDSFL
Outline: (§1)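 Kinase phosphorylation of a FAM-labelled peptide substrate, with ATP and Mn^2+ cofactors, run for 3 h at 25 °C, with optional enzyme–compound pre-incubation. Reactions were quenched with EDTA, and phosphopeptide was detected by anti-phosphotyrosine antibody HTRF.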

CSF-1R = target: T2, CSF-1R (Homo sapiens, UniProt P07333); assay: HTRF biochemical assay, CSF-1R; details: Table 4
T2 construct: purchased Invitrogen PV3249 (lot 662393N)
T2 sequence (P07333 20-972): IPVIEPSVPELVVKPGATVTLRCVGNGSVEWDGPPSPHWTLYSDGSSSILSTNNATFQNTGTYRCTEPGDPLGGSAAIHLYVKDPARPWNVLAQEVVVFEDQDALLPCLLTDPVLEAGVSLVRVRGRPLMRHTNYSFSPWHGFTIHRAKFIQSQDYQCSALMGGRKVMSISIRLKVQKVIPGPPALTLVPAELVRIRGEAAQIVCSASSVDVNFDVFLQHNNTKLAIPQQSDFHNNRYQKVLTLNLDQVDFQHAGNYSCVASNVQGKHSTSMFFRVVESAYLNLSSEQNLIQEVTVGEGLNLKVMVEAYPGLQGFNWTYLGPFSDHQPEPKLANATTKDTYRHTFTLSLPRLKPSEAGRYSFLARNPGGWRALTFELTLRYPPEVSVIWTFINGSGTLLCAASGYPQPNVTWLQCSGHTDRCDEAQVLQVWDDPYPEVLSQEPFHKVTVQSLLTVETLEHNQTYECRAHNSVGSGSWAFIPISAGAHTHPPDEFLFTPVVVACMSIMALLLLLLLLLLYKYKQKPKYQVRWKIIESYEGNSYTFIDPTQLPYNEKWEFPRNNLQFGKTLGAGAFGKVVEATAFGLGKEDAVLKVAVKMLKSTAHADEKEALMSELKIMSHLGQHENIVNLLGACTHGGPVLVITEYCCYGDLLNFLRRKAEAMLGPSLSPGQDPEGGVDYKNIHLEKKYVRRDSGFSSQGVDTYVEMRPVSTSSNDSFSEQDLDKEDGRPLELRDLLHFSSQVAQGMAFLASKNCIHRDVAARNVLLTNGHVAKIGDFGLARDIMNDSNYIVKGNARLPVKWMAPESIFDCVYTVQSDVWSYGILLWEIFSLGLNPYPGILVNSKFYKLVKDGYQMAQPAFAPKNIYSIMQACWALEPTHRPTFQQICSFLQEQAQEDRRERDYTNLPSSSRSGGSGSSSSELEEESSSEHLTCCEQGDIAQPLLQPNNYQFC
Outline: as §1

[1] = target: T3, CSF1R-NanoLuc fusion in HEK293 cells (Homo sapiens, UniProt P07333); assay: NanoBRET cellular target engagement assay, CSF-1R; assay type: cell-based
T3 construct: expressed in transfected cells; host or cells: HEK293, transient transfection
T3 sequence (P07333 20-972): as above
Experimental: (§2) Exemplary compounds were tested for their ability to inhibit target engagement of KIT or CSF-1R kinases through competitive displacement of a Nano-Luc luciferase kinase fusion in HEK293 cells.
(§3) The NanoBRET target engagement assay employs an energy transfer technique designed to measure molecular proximity in living cells. The assay measures the apparent affinity of test compounds by competitive displacement of the NanoBRET tracer, reversibly bound to a NanoLuc luciferase-kinase fusion construct in cells. The intracellular binding affinity and selectivity are physiologically relevant and fundamental to the pharmacological mechanism of the compounds. While biochemical and biophysical assays identify the kinase inhibitors in vitro, the NanoBRET target engagement assay serves to determine the direct interaction of the compounds binding to target kinases in cells.
(§4) HEK293 cells transiently expressing NanoLuc-DDR1 fusion vector were seeded into 384-well plates and treated with the Tracer K-4 and compound for 1 hour. The BRET signal was measured on an EnVision 2104 multilabel microplate reader. NanoBRET Target Engagement Assay in HEK293 cells transiently transfected with KIT and CSF1R-NanoLuc Fusion Vector. HEK293 cells were transfected with […] KIT or CSF1R-NanoLuc Fusion Vector and […] carrier DNA. The transfected cells were treated with test compounds (starting at 10 μM, 10-dose with 3-fold dilution) and reference compound (desatinib) (starting at 1 μM, 10-dose with 3-fold dilution). Percent inhibition due to compound activity was calculated to determine IC50.

[2] = target: T4, KIT-NanoLuc fusion in HEK293 cells (Homo sapiens, UniProt P10721); assay: NanoBRET cellular target engagement assay, KIT; assay type: cell-based
T4 construct: expressed in transfected cells; host or cells: HEK293, transient transfection
T4 sequence (P10721 26-976): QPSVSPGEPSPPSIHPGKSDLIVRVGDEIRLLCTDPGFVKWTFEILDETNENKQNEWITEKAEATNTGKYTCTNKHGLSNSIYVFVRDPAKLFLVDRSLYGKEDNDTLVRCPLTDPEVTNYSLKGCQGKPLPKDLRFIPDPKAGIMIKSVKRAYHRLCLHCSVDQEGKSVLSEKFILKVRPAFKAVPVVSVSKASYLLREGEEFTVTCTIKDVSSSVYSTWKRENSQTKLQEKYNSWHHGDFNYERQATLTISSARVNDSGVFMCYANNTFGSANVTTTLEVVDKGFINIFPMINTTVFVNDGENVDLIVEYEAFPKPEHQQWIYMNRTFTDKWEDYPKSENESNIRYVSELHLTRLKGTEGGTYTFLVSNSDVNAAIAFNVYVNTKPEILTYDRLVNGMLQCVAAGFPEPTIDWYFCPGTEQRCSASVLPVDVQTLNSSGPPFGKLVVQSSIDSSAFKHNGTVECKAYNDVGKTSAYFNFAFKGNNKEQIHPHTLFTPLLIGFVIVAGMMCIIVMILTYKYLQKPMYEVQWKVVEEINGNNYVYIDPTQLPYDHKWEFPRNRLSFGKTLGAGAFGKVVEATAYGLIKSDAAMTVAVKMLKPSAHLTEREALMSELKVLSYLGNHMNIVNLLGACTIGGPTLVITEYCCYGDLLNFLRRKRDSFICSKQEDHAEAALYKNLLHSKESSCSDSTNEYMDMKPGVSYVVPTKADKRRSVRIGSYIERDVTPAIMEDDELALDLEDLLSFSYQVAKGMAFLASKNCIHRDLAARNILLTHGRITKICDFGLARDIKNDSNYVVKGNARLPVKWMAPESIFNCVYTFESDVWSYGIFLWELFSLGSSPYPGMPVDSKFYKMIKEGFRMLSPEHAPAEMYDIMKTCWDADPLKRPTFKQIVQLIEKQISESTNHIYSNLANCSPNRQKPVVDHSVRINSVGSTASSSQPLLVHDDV
Experimental: as §2, §3, §4

| SMILES | CYP 3A4 induction mRNA: Mean fold at 10 μM (CYP3A4; donor four) | IC50 (PDGFRα) | IC50 (CSF-1R) | further results |
| --- | --- | --- | --- | --- |
| Cc1ccc(-c2noc([C@H]3CCC(=O)N3)n2)cc1NC(=O)c1cnc2ccccn12 (racemic) [Compound I-327] | + (induction fold of less than or equal to 2-fold) |  |  | CYP 3A4 induction mRNA: Mean fold at 10 μM (CYP3A4; donor five): + (induction fold of less than or equal to 2-fold); CYP 3A4 induction mRNA: Mean fold at 10 μM (CYP3A4; donor three): + (induction fold of less than or equal to 2-fold) |
| Cc1ccc(-c2noc(CC(C)O)n2)cc1NC(=O)c1cnc2ccccn12 (racemic) [Compound I-363] | + (induction fold of less than or equal to 2-fold) |  |  | CYP 3A4 induction mRNA: Mean fold at 10 μM (CYP3A4; donor five): + (induction fold of less than or equal to 2-fold); CYP 3A4 induction mRNA: Mean fold at 10 μM (CYP3A4; donor three): + (induction fold of less than or equal to 2-fold) |
| Cc1ccc(-c2noc(C3CCN3)n2)cc1NC(=O)c1cnc2ccccn12 (racemic) [Compound I-394] | + (induction fold of less than or equal to 2-fold) |  |  | CYP 3A4 induction mRNA: Mean fold at 10 μM (CYP3A4; donor five): + (induction fold of less than or equal to 2-fold); CYP 3A4 induction mRNA: Mean fold at 10 μM (CYP3A4; donor three): + (induction fold of less than or equal to 2-fold) |
| COc1ccn2c(C(=O)Nc3cc(-c4noc(CC(O)C(F)F)n4)ccc3C)cnc2c1 (single isomer, unassigned) [Compound I-76] |  | 50 to 500 nM | ≤ 50 nM |  |
| Cc1ccc(-c2noc([C@H]3C[C@@H]3F)n2)cc1NC(=O)c1cnc2cc(COCC(C)(C)O)ccn12 [Compound I-71, N-[5-[5-[(1R,2S)-2-fluorocyclopropyl]-1,2,4-oxadiazol-3-yl]-2-methyl-phenyl]-7-[(2-hydroxy-2-methyl-propoxy)methyl]imidazo[1,2-a]pyridine-3-carboxamide] | + (induction fold of less than or equal to 2-fold) | 5000 to 30000 nM | ≤ 50 nM | IC50 [1]: > 10000 nM; IC50 [2]: ≤ 100 nM; CYP 3A4 induction mRNA: Mean fold at 10 μM (CYP3A4; donor five): + (induction fold of less than or equal to 2-fold); CYP 3A4 induction mRNA: Mean fold at 10 μM (CYP3A4; donor one): + (induction fold of less than or equal to 2-fold) |
| COCCOCc1ccn2c(C(=O)Nc3cc(-c4noc([C@H]5C[C@@H]5F)n4)ccc3C)cnc2c1 [Compound I-84] | + (induction fold of less than or equal to 2-fold) | 500 to 5000 nM | ≤ 50 nM |  |
| Cc1ccc(-c2noc([C@H]3C[C@@H]3F)n2)cc1NC(=O)c1cnc2cc(OC(F)(F)F)ccn12 [Compound I-87] | + (induction fold of less than or equal to 2-fold) | 5000 to 30000 nM | 50 to 500 nM |  |
| Cc1ccc(-c2noc([C@H]3C[C@@H]3F)n2)cc1NC(=O)c1cnc2cc(OC(C)C)ccn12 [Compound I-88] | + (induction fold of less than or equal to 2-fold) | 500 to 5000 nM | ≤ 50 nM | IC50 [1]: > 10000 nM; IC50 [2]: ≤ 100 nM; CYP 3A4 induction mRNA: Mean fold at 10 μM (CYP3A4; donor five): + (induction fold of less than or equal to 2-fold); CYP 3A4 induction mRNA: Mean fold at 10 μM (CYP3A4; donor one): + (induction fold of less than or equal to 2-fold) |
| COc1ccn2c(C(=O)Nc3cc(-c4noc(CC5CC(F)(F)C5)n4)ccc3C)cnc2c1 [Compound I-91] |  | 50 to 500 nM | 50 to 500 nM |  |
| CCOc1ccn2c(C(=O)Nc3cc(-c4noc([C@H]5C[C@@H]5F)n4)ccc3C)cnc2c1 [Compound I-93] |  | 50 to 500 nM | ≤ 50 nM |  |
| COc1ccn2c(C(=O)Nc3cc(-c4noc(C[C@H](C)O)n4)ccc3C)cnc2c1 [Compound I-94] |  | 50 to 500 nM | ≤ 50 nM |  |
| COc1ccn2c(C(=O)Nc3cc(-c4noc(C5CC(F)(F)C5)n4)ccc3C)cnc2c1 [Compound I-96] |  | 50 to 500 nM | ≤ 50 nM |  |
| Cc1ccc(-c2noc([C@H]3C[C@@H]3F)n2)cc1NC(=O)c1cnn2ccccc12 [Compound I-109] |  | 500 to 5000 nM | 50 to 500 nM |  |
| Cc1ccc(-c2noc(CC(O)C(F)F)n2)cc1NC(=O)c1cnc2ccccn12 (centres unmarked) [Compound I-114] | + (induction fold of less than or equal to 2-fold) | 5000 to 30000 nM | 50 to 500 nM | IC50 [1]: > 10000 nM; IC50 [2]: ≤ 100 nM; CYP 3A4 induction mRNA: Mean fold at 10 μM (CYP3A4; donor five): + (induction fold of less than or equal to 2-fold); CYP 3A4 induction mRNA: Mean fold at 10 μM (CYP3A4; donor three): + (induction fold of less than or equal to 2-fold) |
| COc1ccc2ncc(C(=O)Nc3cc(-c4noc(C[C@@H](C)O)n4)ccc3C)n2c1 [Compound I-119] | + (induction fold of less than or equal to 2-fold) | 500 to 5000 nM | 500 to 5000 nM |  |
| Cc1ccc(-c2noc(CC(O)C(F)F)n2)cc1NC(=O)c1cnc2ccccn12 (centres unmarked) [Compound I-122] |  | 500 to 5000 nM | 50 to 500 nM |  |
| Cc1ccc(-c2noc(C3COC3)n2)cc1NC(=O)c1cnc2ccccn12 [Compound I-138] | + (induction fold of less than or equal to 2-fold) |  |  |  |
| CCCS(=O)(=O)N1CC(c2nc(-c3ccc(Cl)c(NC(=O)c4cnc5ccccn45)c3)no2)C1 [Compound I-220] | +++ (induction fold of greater than 3-fold to less than or equal to 10-fold) |  |  |  |
| COC(=O)N1CC(c2nc(-c3ccc(C(F)F)c(NC(=O)c4cnc5ccccn45)c3)no2)C1 [Compound I-225] | +++ (induction fold of greater than 3-fold to less than or equal to 10-fold) | 5000 to 30000 nM | 500 to 5000 nM |  |
| Cc1ccc(-c2noc([C@H](C)O)n2)cc1NC(=O)c1cnc2ccccn12 [Compound I-271] | + (induction fold of less than or equal to 2-fold) |  |  |  |
| Cc1ccc(-c2noc([C@H]3C[C@@H]3F)n2)cc1NC(=O)c1cnc2ccc(F)cn12 [Compound I-288] |  | 500 to 5000 nM | 50 to 500 nM | CYP 3A4 induction mRNA: Mean fold at 10 μM (CYP3A4; donor two): ++++ (induction fold of greater than 10-fold) |
| Cc1ccc(-c2noc(CCO)n2)cc1NC(=O)c1cnc2ccccn12 [Compound I-306] |  | 500 to 5000 nM | 500 to 5000 nM |  |
| Cc1ccc(-c2noc(CC(C)(C)O)n2)cc1NC(=O)c1cnc2ccccn12 [Compound I-336] |  | 50 to 500 nM | 50 to 500 nM |  |
| COC(=O)N1CC(c2nc(-c3ccc(Cl)c(NC(=O)c4cnc5ccccn45)c3)no2)C1 [Compound I-339] |  | 500 to 5000 nM | 500 to 5000 nM |  |
| Cc1ccc(-c2noc([C@H]3CC(F)(F)CN3)n2)cc1NC(=O)c1cnc2ccccn12 [Compound I-359] | + (induction fold of less than or equal to 2-fold) |  |  |  |
| Cc1ccc(-c2noc(C3CC(OCCF)C3)n2)cc1NC(=O)c1cnc2ccccn12 (centres unmarked) [Compound I-369] |  | 5000 to 30000 nM | 5000 to 30000 nM |  |
